# Source: ChEMBL document CHEMBL5058649, “Data for DCP probe BAY 1816032” (2022)
# Legend:
# [1] = target: Serine/threonine-protein kinase ULK3 (Homo sapiens) (UniProt Q6PHR2); experiment: ULK3 DiscoveRx kinase panel; settings: Compound concentration 1.0 uM
# [2] = target: Gastrin/cholecystokinin type B receptor (Homo sapiens) (UniProt P32239); experiment: Cholecystokinin CCK2 (CCKB) Eurofins-Panlabs radioligand binding assay; settings: Compound concentration 10.0 uM
# [3] = target: Casein kinase I isoform gamma-3 (Homo sapiens) (UniProt Q9Y6M4); experiment: CSNK1G3 DiscoveRx kinase panel; settings: Compound concentration 1.0 uM
# [4] = target: Cyclin-dependent kinase 13 (Homo sapiens) (UniProt Q14004); experiment: CDC2L5 DiscoveRx kinase panel; settings: Compound concentration 1.0 uM
# [5] = target: Mast/stem cell growth factor receptor Kit (Homo sapiens) (UniProt P10721); experiment: KIT DiscoveRx kinase panel; settings: Compound concentration 1.0 uM
# [6] = target: Myosin-IIIa (Homo sapiens) (UniProt Q8NEV4); experiment: MYO3A DiscoveRx kinase panel; settings: Compound concentration 1.0 uM
# [7] = target: ATP-sensitive inward rectifier potassium channel 11 (Cricetulus griseus) (UniProt A0A3L7HHE1); experiment: Inhibition of Potassium Channel [KATP] at 10 µM in the Eurofins-Panlabs radioligand binding assay (Eurofins_assay_265600); settings: Cricetinae; Compound concentration 10.0 uM
# [8] = target: Testis-specific serine/threonine-protein kinase 1 (Homo sapiens) (UniProt Q9BXA7); experiment: TSSK1B DiscoveRx kinase panel; settings: Compound concentration 1.0 uM
# [9] = target: Delta-type opioid receptor (Homo sapiens) (UniProt P41143); settings: Compound concentration 10.0 uM
# [10] = target: L-type calcium channel, benzothiazepine site (Cav1.2 alpha-1C) (Homo sapiens, UniProt Q13936); experiment: Inhibition of Calcium Channel L-Type, Benzothiazepine at 10 µM in the Eurofins-Panlabs radioligand binding assay (Eurofins_assay_214510); design: ligand concentration 2 nM, non-specific ligand with concentration 10 µM Diltiazem, incubation time 3h, incubation temperature 4 °C; settings: male, Wistar, rat, rat whole brain preparation, probe [3H] Diltiazem; compound concentration 10 uM; target entry is the homologue from another species
# [11] = target: Ribosomal protein S6 kinase alpha-4 (Homo sapiens) (UniProt O75676); experiment: RPS6KA4(Kin.Dom.2-C-terminal) DiscoveRx kinase panel; settings: Compound concentration 1.0 uM
# [12] = target: Tyrosine-protein kinase Tec (Homo sapiens) (UniProt P42680); experiment: TEC DiscoveRx kinase panel; settings: Compound concentration 1.0 uM
# [13] = target: NUAK family SNF1-like kinase 2 (Homo sapiens) (UniProt Q9H093); experiment: SNARK DiscoveRx kinase panel; settings: Compound concentration 1.0 uM
# [14] = target: Platelet-activating factor receptor (Homo sapiens) (UniProt P25105); experiment: Inhibition of Platelet Activating Factor (PAF) at 10 µM in the Eurofins-Panlabs radioligand binding assay (Eurofins_assay_265010); settings: Compound concentration 10.0 uM
# MDA-MB-436 = experiment: MDA-MB-436 cell line Proliferation assay; format: functional, Homo sapiens; settings: time 4 day
# [15] = target: D(2) dopamine receptor (Homo sapiens) (UniProt P14416); settings: Compound concentration 10.0 uM
# [16] = target: MAP/microtubule affinity-regulating kinase 4 (Homo sapiens) (UniProt Q96L34); experiment: MARK4 DiscoveRx kinase panel; settings: Compound concentration 1.0 uM
# [17] = target: Proto-oncogene tyrosine-protein kinase receptor Ret (Homo sapiens) (UniProt P07949); experiment: RET DiscoveRx kinase panel; settings: Compound concentration 1.0 uM
# [18] = target: L-type calcium channel, dihydropyridine site (Cav1.2 alpha-1C) (Homo sapiens, UniProt Q13936); experiment: Inhibition of Calcium Channel L-Type, Dihydropyridine at 10 µM in the Eurofins-Panlabs radioligand binding assay (Eurofins_assay_214600); design: ligand concentration 0.1 nM, non-specific ligand with concentration 1 µM Nitrendipine, incubation time 90 min, incubation temperature 25 °C; settings: Wistar, rat, rat cerebral cortex preparation, probe [3H] Nitrendipine; compound concentration 10 uM; target entry is the homologue from another species
# [19] = target: Serine/threonine-protein kinase VRK2 (Homo sapiens) (UniProt Q86Y07); experiment: VRK2 DiscoveRx kinase panel; settings: Compound concentration 1.0 uM
# [20] = target: Wee1-like protein kinase (Homo sapiens) (UniProt P30291); experiment: WEE1 DiscoveRx kinase panel; settings: Compound concentration 1.0 uM
# [21] = target: Calcium/calmodulin-dependent protein kinase type II subunit alpha (Homo sapiens) (UniProt Q9UQM7); experiment: CAMK2A DiscoveRx kinase panel; settings: Compound concentration 1.0 uM
# [22] = target: Ribosomal protein S6 kinase alpha-6 (Homo sapiens) (UniProt Q9UK32); experiment: RSK4(Kin.Dom.1-N-terminal) DiscoveRx kinase panel; settings: Compound concentration 1.0 uM
# [23] = target: Tyrosine-protein kinase ITK/TSK (Homo sapiens) (UniProt Q08881); experiment: ITK DiscoveRx kinase panel; settings: Compound concentration 1.0 uM
# [24] = target: Mitogen-activated protein kinase 13 (Homo sapiens) (UniProt O15264); experiment: p38-delta DiscoveRx kinase panel; settings: Compound concentration 1.0 uM
# [25] = target: Serine/threonine-protein kinase PAK 4 (Homo sapiens) (UniProt O96013); experiment: PAK4 DiscoveRx kinase panel; settings: Compound concentration 1.0 uM
# [26] = target: Homeodomain-interacting protein kinase 2 (Homo sapiens) (UniProt Q9H2X6); experiment: HIPK2 DiscoveRx kinase panel; settings: Compound concentration 1.0 uM
# [27] = target: Dual specificity tyrosine-phosphorylation-regulated kinase 1B (Homo sapiens, UniProt Q9Y463); experiment: DYRK1B DiscoveRx kinase panel
# [28] = target: Serine/threonine-protein kinase 32B (Homo sapiens) (UniProt Q9NY57); experiment: YANK2 DiscoveRx kinase panel; settings: Compound concentration 1.0 uM
# [29] = target: Ephrin type-B receptor 3 (Homo sapiens) (UniProt P54753); experiment: EPHB3 DiscoveRx kinase panel; settings: Compound concentration 1.0 uM
# [30] = target: Protein kinase C eta type (Homo sapiens) (UniProt P24723); experiment: PRKCH DiscoveRx kinase panel; settings: Compound concentration 1.0 uM
# [31] = target: Melanocortin receptor 4 (Homo sapiens) (UniProt P32245); experiment: Melanocortin MC4 Eurofins-Panlabs radioligand binding assay; settings: Compound concentration 10.0 uM
# [32] = target: Kappa-type opioid receptor (Homo sapiens) (UniProt P41145); settings: Compound concentration 10.0 uM
# [33] = target: Sodium-dependent serotonin transporter (Homo sapiens) (UniProt P31645); experiment: Transporter, Serotonin (5- Hydroxytryptamine) (SERT) Eurofins-Panlabs radioligand binding assay; settings: Compound concentration 10.0 uM
# [34] = target: Cytoplasmic tyrosine-protein kinase BMX (Homo sapiens) (UniProt P51813); experiment: BMX DiscoveRx kinase panel; settings: Compound concentration 1.0 uM
# [35] = target: Vascular endothelial growth factor receptor 1 (Homo sapiens) (UniProt P17948); experiment: FLT1 DiscoveRx kinase panel; settings: Compound concentration 1.0 uM
# [36] = target: Mitogen-activated protein kinase kinase kinase 3 (Homo sapiens) (UniProt Q99759); experiment: MAP3K3 DiscoveRx kinase panel; settings: Compound concentration 1.0 uM
# [37] = target: Serine/threonine-protein kinase BRSK1 (Homo sapiens) (UniProt Q8TDC3); experiment: BRSK1 DiscoveRx kinase panel; settings: Compound concentration 1.0 uM
# [38] = target: Cyclin-dependent kinase 15 (Homo sapiens) (UniProt Q96Q40); experiment: PFTAIRE2 DiscoveRx kinase panel; settings: Compound concentration 1.0 uM
# [39] = target: Homeodomain-interacting protein kinase 1 (Homo sapiens) (UniProt Q86Z02); experiment: HIPK1 DiscoveRx kinase panel; settings: Compound concentration 1.0 uM
# [40] = target: Ribosomal protein S6 kinase alpha-3 (Homo sapiens) (UniProt P51812); experiment: RSK2(Kin.Dom.2-C-terminal) DiscoveRx kinase panel; settings: Compound concentration 1.0 uM
# [41] = target: Glutamate NMDA receptor (Rattus norvegicus) (UniProt P35439+Q00959+Q00960+Q00961+Q62645+Q8VHN2+Q9R1M7); settings: Compound concentration 10.0 uM
# [42] = target: Dual specificity tyrosine-phosphorylation-regulated kinase 1A (Homo sapiens) (UniProt Q13627); experiment: DYRK1A DiscoveRx kinase panel; settings: Compound concentration 1.0 uM
# [43] = target: Serine/threonine-protein kinase SIK2 (Homo sapiens) (UniProt Q9H0K1); experiment: SIK2 DiscoveRx kinase panel; settings: Compound concentration 1.0 uM
# D(2) dopamine receptor (Homo sapiens), sequence (P14416 whole entry): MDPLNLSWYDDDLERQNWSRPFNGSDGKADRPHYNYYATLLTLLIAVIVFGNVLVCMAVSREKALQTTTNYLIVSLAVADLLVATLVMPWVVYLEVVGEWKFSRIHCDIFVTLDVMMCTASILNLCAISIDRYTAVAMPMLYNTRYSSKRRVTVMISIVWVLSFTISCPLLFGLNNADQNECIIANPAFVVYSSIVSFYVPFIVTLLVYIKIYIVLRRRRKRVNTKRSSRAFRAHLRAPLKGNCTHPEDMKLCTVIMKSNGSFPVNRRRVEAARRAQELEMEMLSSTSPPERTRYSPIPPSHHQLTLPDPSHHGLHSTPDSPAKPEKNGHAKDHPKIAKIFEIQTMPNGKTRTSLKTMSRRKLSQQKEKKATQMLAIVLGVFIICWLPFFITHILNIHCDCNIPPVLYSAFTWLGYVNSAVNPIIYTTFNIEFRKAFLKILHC
# Serine/threonine-protein kinase 32B (Homo sapiens), sequence (Q9NY57 whole entry): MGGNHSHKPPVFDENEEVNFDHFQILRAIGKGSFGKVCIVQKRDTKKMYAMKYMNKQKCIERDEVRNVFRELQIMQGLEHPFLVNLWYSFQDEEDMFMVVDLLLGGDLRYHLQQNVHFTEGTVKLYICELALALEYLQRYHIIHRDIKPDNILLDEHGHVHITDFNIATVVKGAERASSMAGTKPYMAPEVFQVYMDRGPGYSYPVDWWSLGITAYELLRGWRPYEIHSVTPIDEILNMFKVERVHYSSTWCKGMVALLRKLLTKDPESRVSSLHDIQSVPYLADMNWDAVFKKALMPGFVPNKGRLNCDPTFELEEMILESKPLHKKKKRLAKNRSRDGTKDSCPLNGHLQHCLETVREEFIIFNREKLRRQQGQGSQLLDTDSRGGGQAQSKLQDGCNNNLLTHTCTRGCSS
# MAP/microtubule affinity-regulating kinase 4 (Homo sapiens), sequence (Q96L34 whole entry): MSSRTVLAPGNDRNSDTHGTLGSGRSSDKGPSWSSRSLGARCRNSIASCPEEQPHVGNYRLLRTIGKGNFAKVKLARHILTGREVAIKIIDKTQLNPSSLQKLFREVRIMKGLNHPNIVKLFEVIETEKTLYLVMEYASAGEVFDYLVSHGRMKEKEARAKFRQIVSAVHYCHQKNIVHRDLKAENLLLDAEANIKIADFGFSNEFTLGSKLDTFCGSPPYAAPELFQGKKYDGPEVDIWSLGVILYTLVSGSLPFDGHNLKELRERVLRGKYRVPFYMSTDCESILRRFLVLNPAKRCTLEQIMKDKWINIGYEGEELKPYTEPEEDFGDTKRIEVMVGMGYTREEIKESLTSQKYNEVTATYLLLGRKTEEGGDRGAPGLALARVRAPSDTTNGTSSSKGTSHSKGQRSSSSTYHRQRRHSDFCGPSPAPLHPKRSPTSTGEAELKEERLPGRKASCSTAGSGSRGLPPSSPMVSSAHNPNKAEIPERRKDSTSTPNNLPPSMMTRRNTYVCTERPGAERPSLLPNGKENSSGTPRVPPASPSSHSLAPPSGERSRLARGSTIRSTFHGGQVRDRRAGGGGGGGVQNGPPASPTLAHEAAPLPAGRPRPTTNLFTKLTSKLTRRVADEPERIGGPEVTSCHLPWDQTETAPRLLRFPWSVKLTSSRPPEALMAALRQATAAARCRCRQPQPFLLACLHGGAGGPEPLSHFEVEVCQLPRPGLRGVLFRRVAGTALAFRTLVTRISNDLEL
# Mast/stem cell growth factor receptor Kit (Homo sapiens), sequence (P10721 whole entry): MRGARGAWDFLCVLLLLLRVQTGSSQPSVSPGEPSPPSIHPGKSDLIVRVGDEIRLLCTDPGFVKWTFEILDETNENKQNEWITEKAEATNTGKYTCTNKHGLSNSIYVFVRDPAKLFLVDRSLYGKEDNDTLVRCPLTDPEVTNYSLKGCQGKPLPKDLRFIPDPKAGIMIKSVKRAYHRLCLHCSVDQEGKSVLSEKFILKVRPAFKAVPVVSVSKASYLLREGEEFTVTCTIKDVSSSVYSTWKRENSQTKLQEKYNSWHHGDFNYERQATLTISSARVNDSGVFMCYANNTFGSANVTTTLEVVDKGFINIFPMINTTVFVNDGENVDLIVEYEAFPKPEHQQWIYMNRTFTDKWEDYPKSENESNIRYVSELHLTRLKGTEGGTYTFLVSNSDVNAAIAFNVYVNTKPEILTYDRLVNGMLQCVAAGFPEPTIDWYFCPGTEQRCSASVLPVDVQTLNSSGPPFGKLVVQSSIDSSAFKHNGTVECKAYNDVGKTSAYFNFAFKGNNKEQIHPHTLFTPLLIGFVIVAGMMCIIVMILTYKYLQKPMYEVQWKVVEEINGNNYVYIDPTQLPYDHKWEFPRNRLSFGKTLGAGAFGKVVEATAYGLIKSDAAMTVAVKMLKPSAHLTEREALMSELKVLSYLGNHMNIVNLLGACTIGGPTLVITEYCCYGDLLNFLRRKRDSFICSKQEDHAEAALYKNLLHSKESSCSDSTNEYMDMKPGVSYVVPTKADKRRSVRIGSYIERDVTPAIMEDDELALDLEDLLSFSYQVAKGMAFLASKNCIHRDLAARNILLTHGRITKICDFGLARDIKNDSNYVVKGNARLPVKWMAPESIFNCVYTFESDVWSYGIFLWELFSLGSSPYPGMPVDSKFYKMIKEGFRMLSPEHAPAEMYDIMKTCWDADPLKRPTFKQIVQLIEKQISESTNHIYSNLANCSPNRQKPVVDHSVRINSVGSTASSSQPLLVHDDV
# Serine/threonine-protein kinase BRSK1 (Homo sapiens), sequence (Q8TDC3 whole entry): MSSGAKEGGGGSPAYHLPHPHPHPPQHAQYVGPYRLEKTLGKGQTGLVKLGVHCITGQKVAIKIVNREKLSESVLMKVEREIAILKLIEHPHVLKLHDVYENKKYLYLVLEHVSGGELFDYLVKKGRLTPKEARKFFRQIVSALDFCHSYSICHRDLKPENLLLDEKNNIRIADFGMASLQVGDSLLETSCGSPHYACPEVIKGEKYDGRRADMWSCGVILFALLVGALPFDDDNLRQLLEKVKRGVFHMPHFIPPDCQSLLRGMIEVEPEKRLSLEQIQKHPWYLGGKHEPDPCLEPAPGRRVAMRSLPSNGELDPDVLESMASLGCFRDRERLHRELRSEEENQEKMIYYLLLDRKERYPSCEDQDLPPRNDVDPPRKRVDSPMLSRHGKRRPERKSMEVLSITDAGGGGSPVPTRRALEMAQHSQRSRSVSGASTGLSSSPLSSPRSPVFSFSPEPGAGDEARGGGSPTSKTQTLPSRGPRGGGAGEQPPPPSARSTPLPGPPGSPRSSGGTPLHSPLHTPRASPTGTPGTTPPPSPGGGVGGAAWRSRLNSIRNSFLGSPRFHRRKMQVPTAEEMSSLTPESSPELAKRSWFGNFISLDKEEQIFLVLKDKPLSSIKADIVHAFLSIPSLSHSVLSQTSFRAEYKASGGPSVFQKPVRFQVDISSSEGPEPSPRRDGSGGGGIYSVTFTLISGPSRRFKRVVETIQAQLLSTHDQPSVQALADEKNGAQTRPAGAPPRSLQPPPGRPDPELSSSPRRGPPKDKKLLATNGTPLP
# Ephrin type-B receptor 3 (Homo sapiens), sequence (P54753 whole entry): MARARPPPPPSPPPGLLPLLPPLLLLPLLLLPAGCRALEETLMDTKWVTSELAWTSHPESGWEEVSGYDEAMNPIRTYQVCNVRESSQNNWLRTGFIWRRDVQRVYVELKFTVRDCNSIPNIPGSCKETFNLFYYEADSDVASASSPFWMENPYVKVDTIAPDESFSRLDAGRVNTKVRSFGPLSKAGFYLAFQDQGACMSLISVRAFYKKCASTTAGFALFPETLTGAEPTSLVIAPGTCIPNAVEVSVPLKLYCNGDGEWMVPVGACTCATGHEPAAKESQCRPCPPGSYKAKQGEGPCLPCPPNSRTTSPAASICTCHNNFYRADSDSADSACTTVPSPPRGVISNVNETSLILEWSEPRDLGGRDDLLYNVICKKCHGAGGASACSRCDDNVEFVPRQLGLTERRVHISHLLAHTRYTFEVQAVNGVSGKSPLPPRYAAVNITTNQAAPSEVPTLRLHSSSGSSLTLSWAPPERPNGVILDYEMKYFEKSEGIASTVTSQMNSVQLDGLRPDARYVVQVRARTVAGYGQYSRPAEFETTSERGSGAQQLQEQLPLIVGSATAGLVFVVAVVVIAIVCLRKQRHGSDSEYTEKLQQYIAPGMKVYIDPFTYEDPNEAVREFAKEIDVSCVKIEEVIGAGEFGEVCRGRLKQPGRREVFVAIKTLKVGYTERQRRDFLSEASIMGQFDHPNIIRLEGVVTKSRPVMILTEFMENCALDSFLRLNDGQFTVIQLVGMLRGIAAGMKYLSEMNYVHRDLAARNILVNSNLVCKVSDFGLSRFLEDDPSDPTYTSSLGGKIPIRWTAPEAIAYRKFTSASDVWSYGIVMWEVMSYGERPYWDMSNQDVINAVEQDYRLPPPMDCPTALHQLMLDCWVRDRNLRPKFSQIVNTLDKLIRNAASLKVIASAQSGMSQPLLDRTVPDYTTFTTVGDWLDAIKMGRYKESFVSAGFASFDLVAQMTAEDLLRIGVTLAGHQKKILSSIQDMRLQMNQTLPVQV
# Calcium/calmodulin-dependent protein kinase type II subunit alpha (Homo sapiens), sequence (Q9UQM7 whole entry): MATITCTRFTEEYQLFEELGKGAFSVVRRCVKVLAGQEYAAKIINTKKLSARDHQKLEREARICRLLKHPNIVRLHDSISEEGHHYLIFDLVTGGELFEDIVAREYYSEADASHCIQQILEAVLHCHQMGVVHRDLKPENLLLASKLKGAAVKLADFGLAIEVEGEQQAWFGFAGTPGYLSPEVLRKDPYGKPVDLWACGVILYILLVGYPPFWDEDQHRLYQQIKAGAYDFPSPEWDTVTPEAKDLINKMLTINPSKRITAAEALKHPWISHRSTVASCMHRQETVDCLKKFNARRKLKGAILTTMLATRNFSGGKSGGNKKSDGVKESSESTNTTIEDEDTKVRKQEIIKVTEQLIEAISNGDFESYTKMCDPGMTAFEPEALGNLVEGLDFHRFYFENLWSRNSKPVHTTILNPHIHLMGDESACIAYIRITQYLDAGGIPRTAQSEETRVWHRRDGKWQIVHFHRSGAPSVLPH
smiles,measurement,setting,value
COc1cnccc1Nc1nc(-c2nn(Cc3c(F)cc(OCCO)cc3F)c3ccccc23)ncc1OC,residual activity,[1],100%
same,inhibition,[2],1%
same,residual activity,[3],100%
same,residual activity,[4],100%
same,residual activity,[5],82%
same,residual activity,[6],100%
same,inhibition,[7],4%
same,residual activity,[8],100%
same,inhibition,[9],-6%
same,"inhibition at 3 h, 10 µM",[10],-10% (not active)
same,residual activity,[11],100%
same,residual activity,[12],100%
same,residual activity,[13],99%
same,inhibition,[14],28%
same,Cell Proliferation IC50,MDA-MB-436,1.2 µM
same,inhibition,[15],4%
same,residual activity,[16],100%
same,residual activity,[17],97%
same,"inhibition at 90 min, 10 µM",[18],8% (not active)
same,residual activity,[19],94%
same,residual activity,[20],100%
same,residual activity,[21],58%
same,residual activity,[22],100%
same,residual activity,[23],100%
same,residual activity,[24],99%
same,residual activity,[25],82%
same,residual activity,[26],100%
same,Kd,[27],> 30 µM
same,residual activity,[27]; Compound concentration 1.0 uM,6.7%
same,residual activity,[28],82%
same,residual activity,[29],95%
same,residual activity,[30],89%
same,inhibition,[31],10%
same,inhibition,[32],26%
same,inhibition,[33],4%
same,residual activity,[34],100%
same,residual activity,[35],89%
same,residual activity,[36],95%
same,residual activity,[37],93%
same,residual activity,[38],96%
same,residual activity,[39],94%
same,residual activity,[40],98%
same,inhibition,[41],-2%
same,residual activity,[42],96%
same,residual activity,[43],100%
